Test results published in the kinase profiling compilation of Christmann-Franck et al. (2016).

Experiments:
Experiment in all cases: KINOMEscan competition binding
Settings in all cases: compound 10.0 µM
PRKX (human) = PRKX (human) (UniProt P51817)
EPHA5 (human) = EPHA5 (human) (UniProt P54756)
CSNK1G1 (human) = CSNK1G1 (human) (UniProt Q9HCP0)
MST1R (human) = MST1R (human) (UniProt Q04912)
CAMK1G (human) = CAMK1G (human) (UniProt Q96NX5)
LYN (human) = LYN (human) (UniProt P07948)
PIK3C2B (human) = PIK3C2B (human) (UniProt O00750)
CSNK1A1L (human) = CSNK1A1L (human) (UniProt Q8N752)
YES1 (human) = YES1 (human) (UniProt P07947)
PIP4K2B (human) = PIP4K2B (human) (UniProt P78356)
CDC2L2 (human) = CDC2L2 (human) (UniProt Q9UQ88)
Sequence of CDC2L2 (human) (Q9UQ88 whole entry, looked up): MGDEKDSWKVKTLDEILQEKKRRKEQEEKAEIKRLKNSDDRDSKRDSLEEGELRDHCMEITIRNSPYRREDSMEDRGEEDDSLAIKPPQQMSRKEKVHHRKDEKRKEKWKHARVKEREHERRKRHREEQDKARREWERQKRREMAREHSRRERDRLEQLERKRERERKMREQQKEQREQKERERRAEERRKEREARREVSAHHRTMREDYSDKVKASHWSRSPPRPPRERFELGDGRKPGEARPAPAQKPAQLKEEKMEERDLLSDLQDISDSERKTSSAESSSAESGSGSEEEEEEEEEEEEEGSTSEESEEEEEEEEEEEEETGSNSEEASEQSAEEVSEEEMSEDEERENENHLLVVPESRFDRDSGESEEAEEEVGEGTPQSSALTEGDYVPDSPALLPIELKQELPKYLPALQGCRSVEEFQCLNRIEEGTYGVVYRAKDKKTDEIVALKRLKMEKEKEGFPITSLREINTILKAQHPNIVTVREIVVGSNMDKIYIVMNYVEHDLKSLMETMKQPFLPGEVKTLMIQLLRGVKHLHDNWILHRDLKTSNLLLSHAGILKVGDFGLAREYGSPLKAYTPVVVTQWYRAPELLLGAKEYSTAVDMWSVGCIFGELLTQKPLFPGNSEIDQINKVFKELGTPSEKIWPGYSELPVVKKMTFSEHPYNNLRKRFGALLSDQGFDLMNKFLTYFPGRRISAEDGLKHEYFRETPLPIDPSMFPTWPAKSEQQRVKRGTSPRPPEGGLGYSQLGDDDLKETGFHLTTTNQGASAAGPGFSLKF

STK32B (human) = STK32B (human) (UniProt Q9NY57)
TNNI3K (human) = TNNI3K (human) (UniProt Q59H18)
MAP2K2 (human) = MAP2K2 (human) (UniProt P36507)
PRKACA (human) = PRKACA (human) (UniProt P17612)
PAK1 (human) = PAK1 (human) (UniProt Q13153)
MAP3K4 (human) = MAP3K4 (human) (UniProt Q9Y6R4)
FGFR4 (human) = FGFR4 (human) (UniProt P22455)
ABL2 (human) = ABL2 (human) (UniProt P42684)
Sequence of ABL2 (human) (P42684 whole entry, looked up): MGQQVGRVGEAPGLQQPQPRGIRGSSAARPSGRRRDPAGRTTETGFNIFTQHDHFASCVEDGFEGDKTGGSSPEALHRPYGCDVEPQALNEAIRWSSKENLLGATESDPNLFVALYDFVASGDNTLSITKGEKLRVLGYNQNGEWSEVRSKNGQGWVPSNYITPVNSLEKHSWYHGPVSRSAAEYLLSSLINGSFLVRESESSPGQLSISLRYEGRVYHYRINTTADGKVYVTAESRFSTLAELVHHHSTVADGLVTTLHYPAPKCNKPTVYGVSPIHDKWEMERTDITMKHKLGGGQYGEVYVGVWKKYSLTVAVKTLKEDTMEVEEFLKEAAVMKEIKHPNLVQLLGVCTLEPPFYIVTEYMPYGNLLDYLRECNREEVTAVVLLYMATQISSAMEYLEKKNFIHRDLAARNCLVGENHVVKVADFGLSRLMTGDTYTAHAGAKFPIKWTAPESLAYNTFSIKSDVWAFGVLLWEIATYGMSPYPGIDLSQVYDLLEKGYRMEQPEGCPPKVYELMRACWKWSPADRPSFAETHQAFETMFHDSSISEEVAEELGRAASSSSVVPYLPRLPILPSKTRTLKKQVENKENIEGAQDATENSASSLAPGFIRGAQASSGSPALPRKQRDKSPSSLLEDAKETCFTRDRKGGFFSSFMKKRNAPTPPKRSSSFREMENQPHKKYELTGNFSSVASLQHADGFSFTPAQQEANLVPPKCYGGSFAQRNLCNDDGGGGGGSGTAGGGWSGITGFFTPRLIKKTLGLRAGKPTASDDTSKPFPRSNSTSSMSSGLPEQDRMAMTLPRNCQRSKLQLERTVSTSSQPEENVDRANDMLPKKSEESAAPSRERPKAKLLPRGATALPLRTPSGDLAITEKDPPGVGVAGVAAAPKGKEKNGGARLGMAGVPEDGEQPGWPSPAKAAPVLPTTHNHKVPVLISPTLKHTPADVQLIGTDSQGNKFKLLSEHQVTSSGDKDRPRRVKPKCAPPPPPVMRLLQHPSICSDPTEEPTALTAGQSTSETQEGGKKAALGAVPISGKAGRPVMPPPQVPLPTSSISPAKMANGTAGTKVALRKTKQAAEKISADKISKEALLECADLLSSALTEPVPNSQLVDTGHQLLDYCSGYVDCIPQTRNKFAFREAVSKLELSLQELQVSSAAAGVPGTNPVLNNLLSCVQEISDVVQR

AAK1 (human) = AAK1 (human) (UniProt Q2M2I8)
MAP3K3 (human) = MAP3K3 (human) (UniProt Q99759)
GSK3A (human) = GSK3A (human) (UniProt P49840)
[1] = target: JAK1 JH1 catalytic (human) (UniProt P23458)
MAPK11 (human) = MAPK11 (human) (UniProt Q15759)
TAOK1 (human) = TAOK1 (human) (UniProt Q7L7X3)
Sequence of TAOK1 (human) (Q7L7X3 whole entry, looked up): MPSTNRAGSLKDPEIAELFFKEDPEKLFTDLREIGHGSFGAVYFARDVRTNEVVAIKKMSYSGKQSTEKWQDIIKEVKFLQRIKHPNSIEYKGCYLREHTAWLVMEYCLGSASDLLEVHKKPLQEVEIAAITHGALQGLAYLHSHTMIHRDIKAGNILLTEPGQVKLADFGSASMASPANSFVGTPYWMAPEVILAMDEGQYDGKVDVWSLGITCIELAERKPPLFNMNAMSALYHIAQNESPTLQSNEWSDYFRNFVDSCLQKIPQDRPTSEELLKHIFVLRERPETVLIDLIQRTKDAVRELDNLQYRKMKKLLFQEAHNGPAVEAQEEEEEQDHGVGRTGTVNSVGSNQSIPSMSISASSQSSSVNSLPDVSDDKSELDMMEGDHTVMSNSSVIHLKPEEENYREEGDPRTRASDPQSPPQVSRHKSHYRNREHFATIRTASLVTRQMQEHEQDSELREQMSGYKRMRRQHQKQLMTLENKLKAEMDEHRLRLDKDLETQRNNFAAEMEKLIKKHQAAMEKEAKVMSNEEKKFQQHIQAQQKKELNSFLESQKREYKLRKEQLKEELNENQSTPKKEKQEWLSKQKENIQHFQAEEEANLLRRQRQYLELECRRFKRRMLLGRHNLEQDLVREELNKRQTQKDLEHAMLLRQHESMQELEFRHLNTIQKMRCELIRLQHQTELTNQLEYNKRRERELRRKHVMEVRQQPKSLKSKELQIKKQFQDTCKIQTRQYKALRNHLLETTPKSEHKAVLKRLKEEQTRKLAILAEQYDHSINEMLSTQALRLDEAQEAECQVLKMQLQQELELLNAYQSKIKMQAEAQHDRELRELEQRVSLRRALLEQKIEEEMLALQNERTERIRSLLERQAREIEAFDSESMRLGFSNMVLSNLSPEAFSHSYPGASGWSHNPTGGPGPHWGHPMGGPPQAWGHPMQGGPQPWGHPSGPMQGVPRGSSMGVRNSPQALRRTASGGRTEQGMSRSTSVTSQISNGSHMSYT

AXL (human) = AXL (human) (UniProt P30530)
MAP4K5 (human) = MAP4K5 (human) (UniProt Q9Y4K4)
RPS6KA2 KD2 (human) = RPS6KA2 KD2 (human) (UniProt Q15349)
CDK9 (human) = CDK9 (human) (UniProt P50750)
NUAK1 (human) = NUAK1 (human) (UniProt O60285)
Sequence of NUAK1 (human) (O60285 whole entry, looked up): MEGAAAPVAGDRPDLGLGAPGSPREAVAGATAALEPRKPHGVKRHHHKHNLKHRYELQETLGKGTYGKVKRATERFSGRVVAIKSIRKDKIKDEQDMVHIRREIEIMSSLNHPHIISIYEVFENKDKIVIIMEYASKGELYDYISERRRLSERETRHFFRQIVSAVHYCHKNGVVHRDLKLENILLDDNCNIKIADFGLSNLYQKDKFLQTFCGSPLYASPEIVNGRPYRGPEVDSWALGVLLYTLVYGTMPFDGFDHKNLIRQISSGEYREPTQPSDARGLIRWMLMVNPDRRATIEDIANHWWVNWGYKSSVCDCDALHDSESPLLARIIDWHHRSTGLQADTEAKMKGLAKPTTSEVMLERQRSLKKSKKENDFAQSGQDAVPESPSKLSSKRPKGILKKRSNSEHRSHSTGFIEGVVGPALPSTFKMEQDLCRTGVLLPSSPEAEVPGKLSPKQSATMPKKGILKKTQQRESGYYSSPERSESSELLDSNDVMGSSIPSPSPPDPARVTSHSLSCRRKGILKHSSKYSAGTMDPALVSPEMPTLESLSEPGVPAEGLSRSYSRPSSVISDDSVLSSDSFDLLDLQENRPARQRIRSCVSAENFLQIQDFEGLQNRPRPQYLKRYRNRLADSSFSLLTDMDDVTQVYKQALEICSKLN

LATS1 (human) = LATS1 (human) (UniProt O95835)
MAPK8 (human) = MAPK8 (human) (UniProt P45983)
Sequence of MAPK8 (human) (P45983 whole entry, looked up): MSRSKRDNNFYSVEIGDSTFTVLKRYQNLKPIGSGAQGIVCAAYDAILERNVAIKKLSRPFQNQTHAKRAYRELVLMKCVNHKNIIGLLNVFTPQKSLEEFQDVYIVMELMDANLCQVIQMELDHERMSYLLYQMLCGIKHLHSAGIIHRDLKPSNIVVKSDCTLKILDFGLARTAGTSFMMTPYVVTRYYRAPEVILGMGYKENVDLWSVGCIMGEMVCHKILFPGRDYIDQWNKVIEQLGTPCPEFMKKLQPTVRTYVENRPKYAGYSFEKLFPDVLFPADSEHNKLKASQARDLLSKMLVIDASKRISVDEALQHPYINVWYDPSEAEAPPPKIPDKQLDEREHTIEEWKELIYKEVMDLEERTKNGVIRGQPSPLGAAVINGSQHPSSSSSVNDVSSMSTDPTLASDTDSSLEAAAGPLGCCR

MAP3K12 (human) = MAP3K12 (human) (UniProt Q12852)
SIK2 (human) = SIK2 (human) (UniProt Q9H0K1)
Sequence of SIK2 (human) (Q9H0K1 whole entry, looked up): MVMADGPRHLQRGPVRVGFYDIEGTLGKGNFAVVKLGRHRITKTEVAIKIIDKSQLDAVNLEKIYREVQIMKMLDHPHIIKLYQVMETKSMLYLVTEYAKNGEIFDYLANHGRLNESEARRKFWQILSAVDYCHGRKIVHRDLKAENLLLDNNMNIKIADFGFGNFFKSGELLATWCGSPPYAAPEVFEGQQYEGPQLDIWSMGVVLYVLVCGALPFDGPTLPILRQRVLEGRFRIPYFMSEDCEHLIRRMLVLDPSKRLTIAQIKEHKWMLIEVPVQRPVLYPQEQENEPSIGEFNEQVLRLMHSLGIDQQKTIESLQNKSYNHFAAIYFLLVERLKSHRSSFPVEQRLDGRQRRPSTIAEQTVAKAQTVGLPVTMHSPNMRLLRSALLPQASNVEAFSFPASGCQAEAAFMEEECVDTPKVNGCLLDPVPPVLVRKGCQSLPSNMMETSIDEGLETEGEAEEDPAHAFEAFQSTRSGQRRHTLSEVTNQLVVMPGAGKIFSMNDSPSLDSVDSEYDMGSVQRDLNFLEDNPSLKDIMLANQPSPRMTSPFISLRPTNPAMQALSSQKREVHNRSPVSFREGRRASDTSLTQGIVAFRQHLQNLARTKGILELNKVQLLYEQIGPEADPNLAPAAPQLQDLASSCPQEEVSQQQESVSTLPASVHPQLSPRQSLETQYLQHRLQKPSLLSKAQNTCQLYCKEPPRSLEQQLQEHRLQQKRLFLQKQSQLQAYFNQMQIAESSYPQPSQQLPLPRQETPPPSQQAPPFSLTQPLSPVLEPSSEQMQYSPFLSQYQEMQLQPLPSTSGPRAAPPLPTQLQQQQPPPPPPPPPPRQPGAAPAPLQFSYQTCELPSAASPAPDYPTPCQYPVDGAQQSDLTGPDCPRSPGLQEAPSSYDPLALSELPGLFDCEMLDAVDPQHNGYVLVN

SRPK3 (human) = SRPK3 (human) (UniProt Q9UPE1)
TNIK (human) = TNIK (human) (UniProt Q9UKE5)
RPS6KA3 KD1 (human) = RPS6KA3 KD1 (human) (UniProt P51812)
[2] = tested on: FLT3 (human), P36888 [N841I]
ACVR1 (human) = ACVR1 (human) (UniProt Q04771)
RET (human) = RET (human) (UniProt P07949)

Compound: O=C1Nc2ccc(I)cc2/C1=C/c1cc(Br)c(O)c(Br)c1
- kinase still bound, per cent of control (PRKX (human)): 100%
- kinase still bound, per cent of control (EPHA5 (human)): 91%
- kinase still bound, per cent of control (CSNK1G1 (human)): 69%
- kinase still bound, per cent of control (MST1R (human)): 100%
- kinase still bound, per cent of control (CAMK1G (human)): 44%
- kinase still bound, per cent of control (LYN (human)): 86%
- kinase still bound, per cent of control (PIK3C2B (human)): 10%
- kinase still bound, per cent of control (CSNK1A1L (human)): 100%
- kinase still bound, per cent of control (YES1 (human)): 90%
- kinase still bound, per cent of control (PIP4K2B (human)): 10%
- kinase still bound, per cent of control (CDC2L2 (human)): 73%
- kinase still bound, per cent of control (STK32B (human)): 100%
- kinase still bound, per cent of control (TNNI3K (human)): 76%
- kinase still bound, per cent of control (MAP2K2 (human)): 74%
- kinase still bound, per cent of control (PRKACA (human)): 100%
- kinase still bound, per cent of control (PAK1 (human)): 100%
- kinase still bound, per cent of control (MAP3K4 (human)): 95%
- kinase still bound, per cent of control (FGFR4 (human)): 100%
- kinase still bound, per cent of control (ABL2 (human)): 66%
- kinase still bound, per cent of control (AAK1 (human)): 5.2%
- kinase still bound, per cent of control (MAP3K3 (human)): 92%
- kinase still bound, per cent of control (GSK3A (human)): 100%
- kinase still bound, per cent of control [1]: 100%
- kinase still bound, per cent of control (MAPK11 (human)): 88%
- kinase still bound, per cent of control (TAOK1 (human)): 54%
- kinase still bound, per cent of control (AXL (human)): 100%
- kinase still bound, per cent of control (MAP4K5 (human)): 100%
- kinase still bound, per cent of control (RPS6KA2 KD2 (human)): 45%
- kinase still bound, per cent of control (CDK9 (human)): 93%
- kinase still bound, per cent of control (NUAK1 (human)): 100%
- kinase still bound, per cent of control (LATS1 (human)): 44%
- kinase still bound, per cent of control (MAPK8 (human)): 86%
- kinase still bound, per cent of control (MAP3K12 (human)): 80%
- kinase still bound, per cent of control (SIK2 (human)): 84%
- kinase still bound, per cent of control (SRPK3 (human)): 7.8%
- kinase still bound, per cent of control (TNIK (human)): 2.7%
- kinase still bound, per cent of control (RPS6KA3 KD1 (human)): 36%
- kinase still bound, per cent of control [2]: 12%
- kinase still bound, per cent of control (ACVR1 (human)): 31%
- kinase still bound, per cent of control (RET (human)): 100%

Compound: N#Cc1c(NC(=O)c2cccc3ccccc23)sc2c1CCCC2
- kinase still bound, per cent of control (PRKX (human)): 100%
- kinase still bound, per cent of control (EPHA5 (human)): 89%
- kinase still bound, per cent of control (CSNK1G1 (human)): 50%
- kinase still bound, per cent of control (MST1R (human)): 95%
- kinase still bound, per cent of control (CAMK1G (human)): 90%
- kinase still bound, per cent of control (LYN (human)): 78%
- kinase still bound, per cent of control (PIK3C2B (human)): 100%
- kinase still bound, per cent of control (CSNK1A1L (human)): 66%
- kinase still bound, per cent of control (YES1 (human)): 78%
- kinase still bound, per cent of control (PIP4K2B (human)): 100%
- kinase still bound, per cent of control (CDC2L2 (human)): 100%
- kinase still bound, per cent of control (STK32B (human)): 83%
- kinase still bound, per cent of control (TNNI3K (human)): 52%
- kinase still bound, per cent of control (MAP2K2 (human)): 100%
- kinase still bound, per cent of control (PRKACA (human)): 78%
- kinase still bound, per cent of control (PAK1 (human)): 100%
- kinase still bound, per cent of control (MAP3K4 (human)): 86%
- kinase still bound, per cent of control (FGFR4 (human)): 49%
- kinase still bound, per cent of control (ABL2 (human)): 86%
- kinase still bound, per cent of control (AAK1 (human)): 91%
- kinase still bound, per cent of control (MAP3K3 (human)): 96%
- kinase still bound, per cent of control (GSK3A (human)): 72%
- kinase still bound, per cent of control [1]: 78%
- kinase still bound, per cent of control (MAPK11 (human)): 100%
- kinase still bound, per cent of control (TAOK1 (human)): 100%
- kinase still bound, per cent of control (AXL (human)): 88%
- kinase still bound, per cent of control (MAP4K5 (human)): 65%
- kinase still bound, per cent of control (RPS6KA2 KD2 (human)): 79%
- kinase still bound, per cent of control (CDK9 (human)): 83%
- kinase still bound, per cent of control (NUAK1 (human)): 77%
- kinase still bound, per cent of control (LATS1 (human)): 93%
- kinase still bound, per cent of control (MAPK8 (human)): 60%
- kinase still bound, per cent of control (MAP3K12 (human)): 79%
- kinase still bound, per cent of control (SIK2 (human)): 78%
- kinase still bound, per cent of control (SRPK3 (human)): 100%
- kinase still bound, per cent of control (TNIK (human)): 100%
- kinase still bound, per cent of control (RPS6KA3 KD1 (human)): 100%
- kinase still bound, per cent of control [2]: 86%
- kinase still bound, per cent of control (ACVR1 (human)): 64%
- kinase still bound, per cent of control (RET (human)): 94%

Compound: CCN1CCN(Cc2ccc(Nc3ncc4c(n3)N(C)c3ccccc3C(=O)N4C)cc2C(F)(F)F)CC1
- kinase still bound, per cent of control (PRKX (human)): 100%
- kinase still bound, per cent of control (EPHA5 (human)): 100%
- kinase still bound, per cent of control (CSNK1G1 (human)): 7.6%
- kinase still bound, per cent of control (MST1R (human)): 100%
- kinase still bound, per cent of control (CAMK1G (human)): 61%
- kinase still bound, per cent of control (LYN (human)): 61%
- kinase still bound, per cent of control (PIK3C2B (human)): 71%
- kinase still bound, per cent of control (CSNK1A1L (human)): 74%
- kinase still bound, per cent of control (YES1 (human)): 6.6%
- kinase still bound, per cent of control (PIP4K2B (human)): 31%
- kinase still bound, per cent of control (CDC2L2 (human)): 97%
- kinase still bound, per cent of control (STK32B (human)): 100%
- kinase still bound, per cent of control (TNNI3K (human)): 78%
- kinase still bound, per cent of control (MAP2K2 (human)): 89%
- kinase still bound, per cent of control (PRKACA (human)): 100%
- kinase still bound, per cent of control (PAK1 (human)): 86%
- kinase still bound, per cent of control (MAP3K4 (human)): 81%
- kinase still bound, per cent of control (FGFR4 (human)): 36%
- kinase still bound, per cent of control (ABL2 (human)): 3%
- kinase still bound, per cent of control (AAK1 (human)): 36%
- kinase still bound, per cent of control (MAP3K3 (human)): 0.65%
- kinase still bound, per cent of control (GSK3A (human)): 100%
- kinase still bound, per cent of control [1]: 93%
- kinase still bound, per cent of control (MAPK11 (human)): 82%
- kinase still bound, per cent of control (TAOK1 (human)): 0.2%
- kinase still bound, per cent of control (AXL (human)): 11%
- kinase still bound, per cent of control (MAP4K5 (human)): 35%
- kinase still bound, per cent of control (RPS6KA2 KD2 (human)): 32%
- kinase still bound, per cent of control (CDK9 (human)): 100%
- kinase still bound, per cent of control (NUAK1 (human)): 3%
- kinase still bound, per cent of control (LATS1 (human)): 100%
- kinase still bound, per cent of control (MAPK8 (human)): 100%
- kinase still bound, per cent of control (MAP3K12 (human)): 49%
- kinase still bound, per cent of control (SIK2 (human)): 24%
- kinase still bound, per cent of control (SRPK3 (human)): 57%
- kinase still bound, per cent of control (TNIK (human)): 100%
- kinase still bound, per cent of control (RPS6KA3 KD1 (human)): 28%
- kinase still bound, per cent of control [2]: 21%
- kinase still bound, per cent of control (ACVR1 (human)): 52%
- kinase still bound, per cent of control (RET (human)): 2.4%
